Experimental data: patent US10550095B2, “Cancerous cell growth inhibiting compounds” (WISYS TECHNOLOGY FOUNDATION, INC., priority 2016, dated 2020)
Several values for one entry are separate records, joined by “and”; a condition that tells them apart may be missing. Equal entries are not always repeated. Entries after “also recorded” stand apart in the source; their conditions may differ.

What was measured:
zebrafish embryos [1] = assay: Skin Lightening Efficacy of All Analogs on Zebrafish Embryos (Table 1); type: in vivo
Protocol: (§1) The testing protocols for these compounds are as follows: • a. […] The embryos were monitored and imaged throughout their development to track the development of melanin pigment relative to a control group to which water was administered (Protocol 1). • b. […] The embryos were again monitored and imaged throughout their development relative to a control group to which water was administered (Protocol 2). • c. Additionally, to test the ability of the pigment to recover after being treated with our drugs, all embryos were treated at 24 hpf with the chemicals until the 48 hpf or 64 hpf time period, then washed with water to remove the treatment. The embryos were again monitored and imaged throughout their development relative to a control group to which water was administered (Protocol 3).
(§2) The black pigment (or melanin) is very easy to observe in zebrafish. In brief, adult zebrafish are taken to breed embryos. Morphologically normal embryos of 24 hours post fertilization (hpf) stage were selected for incubation in the drugs from 24 to 76 hours. During the incubation, the embryos are monitored and imaged (see FIGS. 1 and 3) to track the development of melanin. […] To broaden the comparison with other skin-whitening products, this project can also test at least three other compounds, Kojic acid, Gallic acid and Haginin. […] In the meantime, the whole organism context also allows us to examine the toxicological profile, if any, of these compounds.

zebrafish embryos [2] = assay: Inhibition of melanin synthesis in zebrafish embryos, treated 24-76 hpf (Protocol 1); type: in vivo; conditions: for pigmentation in comparison to the control group: zebrafish embryos treated 24 to 76 hpf
Protocol: as §1, §2

B16-F10 melanoma cells [3] = assay: Melanin in melanoma cells; type: cell-based, mouse; conditions: for Melanin: melanoma cells
Text: (MEK-I is a known MEK inhibitor as a comparison purchased from Sigma): […]

B16-F10 melanoma cells [4] = assay: cells; type: cell-based
zebrafish embryos [5] = assay: Toxicity in developing zebrafish embryos
Protocol: as §2

MEK = MEK activity (FIG. 12)
Text: FIG. 12 are photo illustrations of MEK activity with exemplary embodiments of the human drug treatments of the present invention; and
(§3) The intracellular signaling pathway that involves Raf and MEK is known to be the major pathway to regulate cell proliferation. Many current melanoma drugs such as cobimetinib works by inhibiting Raf or MEK. While they are effective in inhibiting melanoma growth, they exert different degrees of side effect on normal cells by inhibiting the Raf-MEK pathway. […] Also, with regard to FIG. 13, the compound SK-03-92 is shown to inhibit melanoma cell growth by approximately 10% at 10 μM and at 100% at 40 μM.

[6] = test system: transgenic melanoma zebrafish embryos; assay: Melanoma formation and recovery in transgenic melanoma zebrafish embryos; type: in vivo
Protocol: as §3

zebrafish embryos [7] = assay: Effect on existing melanin and/or melanocytes, embryos treated at 48 hpf (Protocol 2); type: in vivo
Protocol: (§4) The testing protocols for these compounds are as follows: • a. […] The embryos were monitored and imaged throughout their development to track the development of melanin pigment relative to a control group to which water was administered (Protocol 1). • b. To test the effects of the drugs on existing melanin and/or melanocytes, the embryos were treated with the chemicals at 48 hpf, after pigment had developed. The embryos were again monitored and imaged throughout their development relative to a control group to which water was administered (Protocol 2). • c. Additionally, to test the ability of the pigment to recover after being treated with our drugs, all embryos were treated at 24 hpf with the chemicals until the 48 hpf or 64 hpf time period, then washed with water to remove the treatment. The embryos were again monitored and imaged throughout their development relative to a control group to which water was administered (Protocol 3).
To test the effects of the drugs on existing melanin and/or melanocytes, the embryos were treated with the chemicals A11, MEK-I and PTU at 48 hpf, after pigment had developed. The embryos were again monitored and imaged throughout their development according to Protocol 2.

zebrafish embryos [8] = assay: Pigment recovery after compound withdrawal (Protocol 3); type: in vivo; conditions: treated 24-48 hpf or 24-64 hpf, then washed; by 72 hpf
Protocol: as §4
It has been reported that melanin usually reappears after the withdrawal of skin whitening products. […] The pigmentation was monitored closely for 48-72 hours. Similarly, this experiment was repeated at least three times to gain a reproducible result.

MITF [9] = assay: Western blot for MITF protein level in B16-F10 cells; type: cell-based, mouse; conditions: western blot vs DMSO control (FIG. 21)
Text: (§5) To understand how A11 inhibits melanoma proliferation, we examined the MITF expression level in A11-treated B16-F10 cells by western blot and RT-qPCR.

Pax3 = assay: RT-qPCR of Pax3 in melanoma cells; type: cell-based, mouse
Text: as §5
(§6) The results of several qPCR experiments using melanoma cells were compiled in FIG. 20. Pax3 and sox10 are genes determine the melanocyte precursors while mit-f is the specific transcription factor that initiates melanocyte differentiation. Dct and tyr genes are expressed in differentiated melanocytes. […] The decrease in magnitude is not significant likely due to the very heterogeneous cell types in melanoma.

[10] = test system: DCT (dopachrome tautomerase); assay: RT-qPCR of DCT in melanoma cells; type: cell-based, mouse
Text: as §5, §6

tyrosinase = assay: RT-qPCR of tyrosinase in melanoma cells; type: cell-based, mouse
Text: as §5, §6

MITF [11] = assay: RT-qPCR of MITF (mit-f) in melanoma cells; type: cell-based, mouse
Text: as §5, §6

MAPK = assay: Western blot for phosphorylated MAPK in melanoma cells; type: cell-based, mouse; conditions: melanoma cells (FIG. 19A)
Text: We wanted to further understand the molecular mechanism of A11 and its derivatives by examining the activities of MAPK, Akt, and PRPP pathways which regulate cell proliferation and cell death.
MAPK is involved in the major cell proliferation signaling pathway. In many cancer cells, MAPK is activated at high level by phosphorylation. Using the anti-phosphorylated-MAPK (p-MAPK) on western blot, it is very easy to understand the proliferation ability in cells. […] While the results are against our hypothesis and current understanding, it raises a very interesting mechanism of A11 which requires further investigation. […] The current understanding is that activated MAPK and Akt both lead to cell proliferation.

Structure (SMILES): COc1ccc(S/C=C/c2cc(O)cc(OC)c2)cc1 [SK0503]
- Pigmentation (zebrafish embryos [1]; concentration not given): 0%

Structure (SMILES): NC(=O)c1cccnc1 [Niacinamide]
- pigmentation in comparison to the control group (zebrafish embryos [2]; 1%): 10%

Structure (SMILES): COc1cc(O)cc(/C=C/n2ccc(C(F)(F)F)n2)c1 [SK0951]
- Pigmentation (zebrafish embryos [1]; concentration not given): 0%

Structure (SMILES): COc1cc(O)cc(/C=C/Sc2ccccc2C(C)C)c1 [SK0501]
- Pigmentation (zebrafish embryos [1]; concentration not given): 0%

Structure (SMILES): COc1cc(O)cc(/C=C/c2cccs2)c1 [CL6]
- Pigmentation (zebrafish embryos [1]; concentration not given): 0%

Structure (SMILES): COc1cc(O)cc(/C=C/c2cc3ccccc3s2)c1 [SK0392, (E)-3-(2-(Benzo[b]thiophen-2-yl)vinyl)-5-methoxyphenol]
- Melanin (B16-F10 melanoma cells [3]; 10 μM): 97%
- melanin in B16-F10 cells (in words) (B16-F10 melanoma cells [3]; mouse cell line B16-F10): decrease of melanin
- Average Melanoma growth (from the previous chart) (B16-F10 melanoma cells [4]; 10 μM): 100%
- inhibition at 10 µM (B16-F10 melanoma cells [4]; Mus musculus, B16-F10, 10 μM (FIG. 13), read-out: inhibition of melanoma cell growth): ~10%
- inhibition at 40 µM (B16-F10 melanoma cells [4]; Mus musculus, B16-F10, 40 μM (FIG. 13), read-out: inhibition of melanoma cell growth): 100%
- inhibition of melanoma cell growth / cell number (in words) (B16-F10 melanoma cells [4]; melanoma cells): decrease of melanin as well as the cell number
- Growth (B16-F10 melanoma cells [4]; melanoma cells, 10 μM): 100%
- toxicity in embryos (in words) (zebrafish embryos [5]; zebrafish, in vivo): almost no detectable toxicity
- MEK activity (in words) (MEK): increasing MEK activity
- formation and recovery of melanoma (in words) [6]: inhibited the formation and recovery of melanoma
- Pigmentation (zebrafish embryos [1]; 50 uM): 20% (50 uM)

Structure (SMILES): COc1cc(O)cc(/C=C/n2ccc3ccccc32)c1 [SK0953]
- Melanin (B16-F10 melanoma cells [3]; 20 μM): 96%
- Average Melanoma growth (from the previous chart) (B16-F10 melanoma cells [4]; 20 μM): 71%
- Growth (B16-F10 melanoma cells [4]; melanoma cells, 20 μM): 71%
- Pigmentation (zebrafish embryos [1]; concentration not given): 0%

Structure (SMILES): NC(=S)Nc1ccccc1 [PTU, phenylthiourea, reference compound]
- Melanin (B16-F10 melanoma cells [3]; concentration not given): 59% and 67% and 89% and 64%
- Average Melanoma growth (from the previous chart) (B16-F10 melanoma cells [4]; concentration not given): 107%
- Growth (B16-F10 melanoma cells [4]; melanoma cells, concentration not given): 87% and 107% and 128% and 106%
- toxicity in embryos (in words) (zebrafish embryos [5]; developing zebrafish embryos): various levels of toxicity
- pigmentation inhibition (in words) (zebrafish embryos [2]; zebrafish embryos treated 24-76 hpf): nearly complete pigmentation loss
- Pigmentation (zebrafish embryos [2]; zebrafish embryos treated 24-76 hpf, 0.003%): 10%
- effect on existing pigment (in words) (zebrafish embryos [7]): remove existing pigment
- existing pigment remaining (zebrafish embryos [7]): 20%
- pigmentation recovered after wash-off (zebrafish embryos [8]): 100%

Structure (SMILES): COc1cc(/C=C/Oc2ccccc2)cc(OC)c1 [CL2]
- Pigmentation (zebrafish embryos [1]; concentration not given): 5%

Structure (SMILES): COc1cc(O)cc(/C=C/Sc2ccccc2)c1 [CL4]
- Melanin (B16-F10 melanoma cells [3]; 10 μM): 107%
- Average Melanoma growth (from the previous chart) (B16-F10 melanoma cells [4]; 10 μM): 93%
- Growth (B16-F10 melanoma cells [4]; melanoma cells, 10 μM): 93%
- Pigmentation (zebrafish embryos [1]; concentration not given): 0%

Structure (SMILES): N#CC(=C(N)Sc1ccccc1N)C(C#N)=C(N)Sc1ccccc1N [MEK-I, reference compound]
- Melanin (B16-F10 melanoma cells [3]; 10 μM): 104% and 78% and 94%
- Melanin (B16-F10 melanoma cells [3]; 20 μM): 82% and 84%
- MITF protein level (in words) (MITF [9]): high level of MITF
- Pax3 expression (in words) (Pax3): increases Pax3 transcription
- Average Melanoma growth (from the previous chart) (B16-F10 melanoma cells [4]; 10 μM): 67%
- Average Melanoma growth (from the previous chart) (B16-F10 melanoma cells [4]; 20 μM): 35%
- Growth (B16-F10 melanoma cells [4]; melanoma cells, 10 μM): 72% and 62%
- toxicity in embryos (in words) (zebrafish embryos [5]; developing zebrafish embryos): various levels of toxicity; also recorded: Notocord toxicity is present
- DCT expression (in words) [10]: decreased
- tyrosinase expression (in words) (tyrosinase): decreased
- Pigmentation (zebrafish embryos [2]; zebrafish embryos treated 24-76 hpf, 10 μM): 60%
- effect on existing pigment (in words) (zebrafish embryos [7]): has no effect; also recorded: ineffective
- MITF (mit-f) mRNA expression (in words) (MITF [11]): no effect on the MITF transcription
- pigmentation recovered after wash-off (zebrafish embryos [8]): 100%
- amount of p-MAPK / MAPK activity (in words) (MAPK): effectively suppresses the amount of p-MAPK

Structure (SMILES): COc1cc(O)cc(/C=C/n2ncc3ccccc32)c1 [SK0954]
- Pigmentation (zebrafish embryos [1]; concentration not given): 0%

Structure (SMILES): COc1cc(O)cc(/C=C/Oc2cccc(C)c2)c1 [Analog A9]
- Melanin (B16-F10 melanoma cells [3]; 10 μM): 101%
- Melanin (B16-F10 melanoma cells [3]; 40 μM): 96%
- Average Melanoma growth (from the previous chart) (B16-F10 melanoma cells [4]; 10 μM): 78%
- Average Melanoma growth (from the previous chart) (B16-F10 melanoma cells [4]; 40 μM): 76%
- Growth (B16-F10 melanoma cells [4]; melanoma cells, 10 μM): 78%
- Growth (B16-F10 melanoma cells [4]; melanoma cells, 40 μM): 76%
- Pigmentation (zebrafish embryos [1]; concentration not given): 10%

Structure (SMILES): CC1=C(/C=C/C(C)=C/C=C/C(C)=C/C(=O)O)C(C)(C)CCC1 [Tretinoin]
- pigmentation in comparison to the control group (zebrafish embryos [2]; 0.1%): 80%

Structure (SMILES): COc1cc(O)cc(/C=C/Oc2ccccc2)c1 [CL1]
- Pigmentation (zebrafish embryos [1]; 40 uM): 0% (40 uM)

Structure (SMILES): OC[C@H]1O[C@@H](Oc2ccc(O)cc2)[C@H](O)[C@@H](O)[C@@H]1O [Arbutin]
- pigmentation in comparison to the control group (zebrafish embryos [2]; 100 μM): 30%

Structure (SMILES): COc1cc(O)cc(/C=C/Oc2cccc(OC)c2)c1 [Analog A8]
- Pigmentation (zebrafish embryos [1]; concentration not given): 10%
